According to the NIST ThermoML archive (doi:10.1021/acs.jced.7b00937):
± gives the expanded uncertainty stated by the source.

Assay: mn = molality of the nth substance listed, in mol/kg
Details: 100 kPa, Liquid, Capillary tube (Ostwald / Ubbelohde) method

Row | viscosity (288.15 K, m1 = 0.05) [mPa·s] | viscosity (288.15 K, m1 = 0.15) [mPa·s] | viscosity (288.15 K, m1 = 0.25) [mPa·s] | viscosity (288.15 K, m1 = 0.35) [mPa·s] | viscosity (298.15 K, m1 = 0.05) [mPa·s] | viscosity (298.15 K, m1 = 0.15) [mPa·s] | viscosity (298.15 K, m1 = 0.25) [mPa·s] | viscosity (298.15 K, m1 = 0.35) [mPa·s] | viscosity (308.15 K, m1 = 0.05) [mPa·s] | viscosity (308.15 K, m1 = 0.15) [mPa·s] | viscosity (308.15 K, m1 = 0.25) [mPa·s] | viscosity (308.15 K, m1 = 0.35) [mPa·s] | viscosity (318.15 K, m1 = 0.05) [mPa·s] | viscosity (318.15 K, m1 = 0.15) [mPa·s] | viscosity (318.15 K, m1 = 0.25) [mPa·s] | viscosity (318.15 K, m1 = 0.35) [mPa·s] | Compound
1 | 1.179 ± 0.021 | 1.27 ± 0.021 | 1.368 ± 0.021 | 1.473 ± 0.022 | 0.917 ± 0.021 | 0.986 ± 0.021 | 1.059 ± 0.021 | 1.146 ± 0.021 | 0.748 ± 0.021 | 0.803 ± 0.021 | 0.851 ± 0.021 | 0.91 ± 0.021 | 0.615 ± 0.02 | 0.658 ± 0.02 | 0.703 ± 0.02 | 0.749 ± 0.021 | Cc1ncc(C[n+]2csc(CCO)c2C)c(N)n1.Cl.[Cl-] [thiamine hydrochloride] + O
2 | 1.16 ± 0.021 | 1.209 ± 0.021 | 1.256 ± 0.021 | 1.304 ± 0.021 | 0.912 ± 0.021 | 0.944 ± 0.021 | 0.982 ± 0.021 | 1.019 ± 0.021 | 0.736 ± 0.02 | 0.761 ± 0.021 | 0.791 ± 0.021 | 0.82 ± 0.021 | 0.607 ± 0.02 | 0.634 ± 0.02 | 0.656 ± 0.02 | 0.68 ± 0.02 | Cc1ncc(CO)c(CO)c1O.Cl [5-hydroxy-6-methyl-3,4-pyridinedimethanol hydrochloride] + O
